Test results published in ChEMBL document CHEMBL1201862, “PubChem BioAssay data set” (2004).
The source made the active and inactive calls.

Assays:
[1] = HEp-2 cell cytotoxicity, dose response, cytotoxicity control for RSV inhibitor project, HTS (AID 2410); type: functional; conditions: human respiratory syncytial virus
[2] = molecular target: Disintegrin and metalloproteinase domain-containing protein 17 (Homo sapiens, UniProt P78536); assay: exosite inhibitors of ADAM17, dose response, biochemical (AID 743260)
[3] = ADAM10 protease inhibitors, dose response, selectivity assay for ADAM17 exosite inhibitor project, biochemical, FRET peptide substrate, recombinant human ADAM10 (AID 743259);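 note: ADAM10 enzyme cleaving a FRET peptide substrate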
[4] = inhibitors of Vif binding to APOBEC3G peptide, primary screen, biochemical, TR-FRET, GST-Vif 1-94, biotin-A3G peptide, dose response retest (AID 1117319); type: functional;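 note: TR-FRET signal of purified GST-Vif binding a biotinylated A3G peptide; inhibitors lower the FRET signal by blocking Vif and A3G binding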
[5] = THP-1 cell cytotoxicity, dose response, cytotoxicity control for Vif-APOBEC3G degradation inhibitor project, THP-1 cells (AID 1117359); type: functional; conditions: Human immunodeficiency virus 1, THP-1
[6] = microbe, parasite or virus in culture; type: functional; conditions: Mycobacterium tuberculosis
[7] = THP-1 cell cytotoxicity, dose response, cytotoxicity control for non-replicating M. tuberculosis project (AID 489025); type: functional
[8] = Vero E6 cell cytotoxicity, dose response, cytotoxicity control for non-replicating M. tuberculosis project, secondary assay (AID 492998); type: functional, VeroE6; conditions: Vero C1008
[9] = cells; type: functional
[10] = molecular target: T1, Aminopeptidase N (Plasmodium falciparum FcB1/Columbia, UniProt O96935); assay: P. falciparum M1AAP inhibitors, biochemical, fluorogenic H-Leu-NHMec substrate, 1536-well (AID 1445); set-up: species or system Plasmodium falciparum 3D7, 3D7
T1 sequence (O96935 whole entry): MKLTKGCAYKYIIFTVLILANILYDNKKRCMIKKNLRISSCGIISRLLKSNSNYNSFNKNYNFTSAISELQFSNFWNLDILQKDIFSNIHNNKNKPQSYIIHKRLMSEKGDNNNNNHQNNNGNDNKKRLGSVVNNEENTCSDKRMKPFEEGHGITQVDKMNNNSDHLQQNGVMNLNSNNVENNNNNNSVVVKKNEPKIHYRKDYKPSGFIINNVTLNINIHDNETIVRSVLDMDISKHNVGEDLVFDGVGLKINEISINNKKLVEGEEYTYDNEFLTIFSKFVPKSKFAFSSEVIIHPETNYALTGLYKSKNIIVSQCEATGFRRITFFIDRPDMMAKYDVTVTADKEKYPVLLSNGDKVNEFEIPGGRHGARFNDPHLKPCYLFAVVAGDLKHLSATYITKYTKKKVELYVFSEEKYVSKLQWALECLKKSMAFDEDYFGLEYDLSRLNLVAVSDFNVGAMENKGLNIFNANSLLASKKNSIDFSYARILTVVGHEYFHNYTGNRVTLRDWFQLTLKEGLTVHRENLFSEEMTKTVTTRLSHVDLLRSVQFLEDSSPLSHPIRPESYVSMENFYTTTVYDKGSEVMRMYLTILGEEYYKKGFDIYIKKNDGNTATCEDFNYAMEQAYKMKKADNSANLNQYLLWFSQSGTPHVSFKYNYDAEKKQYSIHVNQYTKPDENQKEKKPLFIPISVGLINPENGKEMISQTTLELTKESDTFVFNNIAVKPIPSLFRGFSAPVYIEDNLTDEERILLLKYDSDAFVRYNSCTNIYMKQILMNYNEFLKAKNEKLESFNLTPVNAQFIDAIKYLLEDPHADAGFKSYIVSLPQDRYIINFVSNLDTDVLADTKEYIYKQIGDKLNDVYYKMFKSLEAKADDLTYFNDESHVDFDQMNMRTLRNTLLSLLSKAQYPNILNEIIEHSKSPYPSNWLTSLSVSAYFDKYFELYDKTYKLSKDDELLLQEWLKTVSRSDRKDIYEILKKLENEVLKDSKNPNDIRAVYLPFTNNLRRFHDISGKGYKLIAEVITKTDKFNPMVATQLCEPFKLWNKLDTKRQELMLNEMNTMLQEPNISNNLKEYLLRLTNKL

Chain of Disintegrin and metalloproteinase domain-containing protein 17 (P78536 whole entry, the tested form may be a part): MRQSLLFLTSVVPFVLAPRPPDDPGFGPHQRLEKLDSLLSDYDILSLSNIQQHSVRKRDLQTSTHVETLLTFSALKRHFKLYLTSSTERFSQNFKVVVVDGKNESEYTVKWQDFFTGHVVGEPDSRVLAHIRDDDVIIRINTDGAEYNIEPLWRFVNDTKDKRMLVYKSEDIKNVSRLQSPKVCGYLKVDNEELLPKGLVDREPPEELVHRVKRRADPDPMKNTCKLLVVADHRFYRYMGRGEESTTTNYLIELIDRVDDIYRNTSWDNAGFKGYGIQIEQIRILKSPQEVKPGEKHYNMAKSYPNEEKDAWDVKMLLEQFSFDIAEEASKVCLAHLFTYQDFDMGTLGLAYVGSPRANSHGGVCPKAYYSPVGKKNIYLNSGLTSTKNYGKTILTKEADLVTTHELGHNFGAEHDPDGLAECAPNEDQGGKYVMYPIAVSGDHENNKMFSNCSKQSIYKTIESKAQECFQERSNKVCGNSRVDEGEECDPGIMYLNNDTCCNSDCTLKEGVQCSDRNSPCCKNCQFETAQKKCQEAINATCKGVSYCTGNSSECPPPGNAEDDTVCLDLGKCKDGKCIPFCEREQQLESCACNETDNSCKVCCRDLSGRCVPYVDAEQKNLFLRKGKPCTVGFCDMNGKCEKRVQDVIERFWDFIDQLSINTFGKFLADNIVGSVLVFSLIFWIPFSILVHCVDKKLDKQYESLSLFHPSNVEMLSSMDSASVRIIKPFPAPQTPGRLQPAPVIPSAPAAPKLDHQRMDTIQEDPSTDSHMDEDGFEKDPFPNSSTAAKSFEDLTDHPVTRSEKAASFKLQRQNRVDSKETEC

## Cc1ccccc1-c1nc(S(=O)(=O)c2ccc(Br)cc2)c(NCc2cccnc2)o1
[1]
  CC50: 21.9 µM (active)
[2]
  IC50: > 69.5 µM (inactive)
[3]
  IC50: > 69.5 µM (inactive)

## Cc1ccc(C(=O)OCc2cn3ccccc3n2)cc1
[4]
  IC50: > 100 µM (active)

## COc1ccc(NC(=O)/C(C#N)=C/c2ccc(Sc3nncn3C)c([N+](=O)[O-])c2)cc1
[5]
  CC50: > 40 µM (active)
[4]
  IC50: > 100 µM (active)

## O=C(CCN1C(=O)/C(=C/c2ccccc2Cl)SC1=S)N1CCCC1
[6]
  CC50: 8.2 µM (active)
[7]
  CC50: 19.7 µM (active)
[8]
  CC50: 11.4 µM (active)
[9]
  IC50: 28.4 µM (active)

## O=C(COC(=O)Cc1ccc(Cl)cc1)NCc1ccco1
[5]
  CC50: > 40 µM (active)

## Cc1cccc(COc2ccccc2C(=O)N(C)CC(=O)Nc2cccc(F)c2)c1
[2]
  IC50: > 69.5 µM (inactive)
[3]
  IC50: 25.5 µM (inactive)

## COc1ccc(NC(=O)CSc2nnc(C)n2Cc2ccccc2)cc1
[4]
  IC50: > 12.5 µM (active)

## CCc1c(C)c2ccc(O)c(CN(C)C)c2oc1=O
[10]
  IC50: 28.9 µM (active)
